Data taken from patent US12599136B2, “Substituted isophthalic acid diamides and their use as herbicides” (Bayer Aktiengesellschaft, priority 2020, dated 2026).

Experiments:
Format in all cases: in vivo
Polygonum convolvulus = assay: Post-emergence herbicidal action against POLCO; settings: 20 g/ha, visual assessment about 3 weeks after treatment
Description: (§1) Seeds of monocotyledonous and dicotyledonous weed and crop plants are laid out in sandy loam soil in wood-fiber pots, covered with soil and cultivated in a greenhouse under good growth conditions. 2 to 3 weeks after sowing, the test plants are treated at the one-leaf stage. The compounds of the invention, formulated in the form of wettable powders (WP) or as emulsion concentrates (EC), are then sprayed onto the green parts of the plants in the form of an aqueous suspension or emulsion at a water application rate equivalent to 600 to 800 l/ha, with addition of 0.2% wetting agent. After the test plants have been left to stand in the greenhouse under optimal growth conditions for about 3 weeks, the action of the preparations is assessed visually in comparison to untreated controls (herbicidal action in percent (%): 100% activity=the plants have died, 0% activity=like control plants). […] The tables below illustrate, in an illustrative manner, the post-emergence herbicidal action of the compounds of the invention, the herbicidal activity being stated in percent.

Echinochloa crus-galli [1] = assay: Post-emergence herbicidal action against ECHCG; settings: visual assessment about 3 weeks after treatment
Outline: (§2)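 Foliar application at one-leaf stage of formulated test compounds, aqueous spray at 600–800 l/ha with 0.2% wetting agent. Greenhouse, optimal conditions, ~3 weeks; damage scored visually in % relative to untreated plants.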

Avena fatua [2] = assay: Pre-emergence herbicidal action against AVEFA; settings: visual score after 3 weeks vs untreated controls
Outline: (§3)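 Greenhouse pots of sandy loam held seeds covered with soil, onto which the compound was applied before emergence. An aqueous suspension or emulsion of WP or EC was used at 600 to 800 l/ha with 0.2% wetting agent. Percent damage was judged visually at 3 weeks.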

Setaria viridis [3] = assay: Pre-emergence herbicidal action against SETVI
Outline: as §3

Digitaria sanguinalis [4] = assay: Post-emergence herbicidal action against DIGSA
Outline: as §2

Echinochloa crus-galli [5] = assay: Pre-emergence herbicidal action against ECHCG; settings: visual score after 3 weeks vs untreated controls
Outline: as §3

Abutilon theophrasti [6] = assay: Pre-emergence herbicidal action against ABUTH; settings: visual score after 3 weeks vs untreated controls
Outline: as §3

Avena fatua [7] = assay: Post-emergence herbicidal action against AVEFA; settings: visual assessment about 3 weeks after treatment
Outline: as §2

Alopecurus myosuroides [8] = assay: Pre-emergence herbicidal action against ALOMY; settings: visual score after 3 weeks vs untreated controls
Outline: as §3

Veronica persica [9] = assay: Post-emergence herbicidal action against VERPE; settings: 20 g/ha, visual assessment about 3 weeks after treatment
Outline: as §2

Viola tricolor [10] = assay: Post-emergence herbicidal action against VIOTR
Outline: as §2

Veronica persica [11] = assay: Pre-emergence herbicidal action against VERPE
Outline: as §3

Viola tricolor [12] = assay: Pre-emergence herbicidal action against VIOTR
Outline: as §3

Amaranthus retroflexus [13] = assay: Pre-emergence herbicidal action against AMARE; settings: visual score after 3 weeks vs untreated controls
Outline: as §3

Abutilon theophrasti [14] = assay: Post-emergence herbicidal action against ABUTH
Outline: as §2

Amaranthus retroflexus [15] = assay: Post-emergence herbicidal action against AMARE; settings: visual assessment about 3 weeks after treatment
Outline: as §2

Digitaria sanguinalis [16] = assay: Pre-emergence herbicidal action against DIGSA
Outline: as §3

Matricaria inodora [17] = assay: Post-emergence herbicidal action against MATIN; settings: visual assessment about 3 weeks after treatment
Outline: as §2

Setaria viridis [18] = assay: Post-emergence herbicidal action against SETVI; settings: visual assessment about 3 weeks after treatment
Outline: as §2

Alopecurus myosuroides [19] = assay: Post-emergence herbicidal action against ALOMY
Outline: as §2

Matricaria inodora [20] = assay: Pre-emergence herbicidal action against MATIN; settings: visual score after 3 weeks vs untreated controls
Outline: as §3

Cyperus esculentus = assay: Pre-emergence herbicidal action against CYPES; settings: visual score after 3 weeks vs untreated controls
Outline: as §3

Stellaria media [21] = assay: Pre-emergence herbicidal action against STEME
Outline: as §3

Pharbitis purpurea [22] = assay: Pre-emergence herbicidal action against PHBPU; settings: 320 g/ha; visual score after 3 weeks vs untreated controls
Outline: as §3

Pharbitis purpurea [23] = assay: Post-emergence herbicidal action against PHBPU; settings: visual assessment about 3 weeks after treatment
Outline: as §2

Hordeum murinum [24] = assay: Pre-emergence herbicidal action against HORMU; settings: visual score after 3 weeks vs untreated controls
Excerpt: Seeds of monocotyledonous and dicotyledonous weed plants and crop plants are laid out in sandy loam soil in wood-fiber pots and covered with soil. The compounds of the invention, formulated in the form of wettable powders (WP) or as emulsion concentrates (EC), are then applied to the surface of the covering soil in the form of an aqueous suspension or emulsion at a water application rate equivalent to 600 to 800 l/ha, with addition of 0.2% wetting agent. After the treatment, the pots are placed in a greenhouse and kept under good growth conditions for the trial plants. The damage to the test plants is scored visually after a test period of 3 weeks by comparison with untreated controls (herbicidal activity in percent (%): 100% activity=the plants have died, 0% activity=like control plants). […] The tables below illustrate, in an illustrative manner, the post-emergence herbicidal action of the compounds of the invention, the herbicidal activity being stated in percent.

Stellaria media [25] = assay: Post-emergence herbicidal action against STEME; settings: visual assessment about 3 weeks after treatment
Outline: as §2

Hordeum murinum [26] = assay: Post-emergence herbicidal action against HORMU
Description: as §1

Lolium rigidum = assay: Pre-emergence herbicidal action against LOLRI; settings: 320 g/ha
Outline: as §3

Cc1c(C(=O)Nc2nnnn2C)ccc(C(F)(F)F)c1C(=O)N(C)CC(F)F [Example 1-24]
Post-emergence action against POLCO in % (Polygonum convolvulus): 100% | Post-emergence action against ECHCG in % (Echinochloa crus-galli [1]; 20 g/ha): 80% | Pre-emergence action against AVEFA (Avena fatua [2]; 80 g/ha): 90% | Pre-emergence action against SETVI (Setaria viridis [3]; 80 g/ha): 100% | Post-emergence action against DIGSA in % (Digitaria sanguinalis [4]; 5 g/ha): 100% | Post-emergence action against DIGSA in % (Digitaria sanguinalis [4]; 20 g/ha): 100% | Pre-emergence action against ECHCG (Echinochloa crus-galli [5]; 80 g/ha): 100% | Pre-emergence action against ABUTH (Abutilon theophrasti [6]; 20 g/ha): 100% | Pre-emergence action against ABUTH (Abutilon theophrasti [6]; 80 g/ha): 100% | Post-emergence action against AVEFA in % (Avena fatua [7]; 20 g/ha): 80% | Pre-emergence action against ALOMY (Alopecurus myosuroides [8]; 80 g/ha): 90% | Post-emergence action against VERPE in % (Veronica persica [9]): 80% | Post-emergence action against VIOTR in % (Viola tricolor [10]; 5 g/ha): 80% | Post-emergence action against VIOTR in % (Viola tricolor [10]; 20 g/ha): 90% | Pre-emergence action against VERPE (Veronica persica [11]; 80 g/ha): 100% | Pre-emergence action against VIOTR (Viola tricolor [12]; 20 g/ha): 80% | Pre-emergence action against VIOTR (Viola tricolor [12]; 80 g/ha): 100% | Pre-emergence action against AMARE (Amaranthus retroflexus [13]; 20 g/ha): 100% | Pre-emergence action against AMARE (Amaranthus retroflexus [13]; 80 g/ha): 100% | Post-emergence action against ABUTH (Abutilon theophrasti [14]; 20 g/ha): 80% | Post-emergence action against AMARE in % (Amaranthus retroflexus [15]; 20 g/ha): 90% | Pre-emergence action against DIGSA (Digitaria sanguinalis [16]; 20 g/ha): 100% | Pre-emergence action against DIGSA (Digitaria sanguinalis [16]; 80 g/ha): 100% | Post-emergence action against MATIN in % (Matricaria inodora [17]; 5 g/ha): 90% | Post-emergence action against MATIN in % (Matricaria inodora [17]; 20 g/ha): 90% | Post-emergence action against SETVI in % (Setaria viridis [18]; 20 g/ha): 80% | Post-emergence action against ALOMY (Alopecurus myosuroides [19]; 20 g/ha): 90% | Pre-emergence action against MATIN (Matricaria inodora [20]; 20 g/ha): 90% | Pre-emergence action against MATIN (Matricaria inodora [20]; 80 g/ha): 100%

CCCn1nnnc1NC(=O)c1ccc(C(F)(F)F)c(C(=O)N(C)C)c1Cl [Example 3-123]
Post-emergence action against ECHCG in % (Echinochloa crus-galli [1]; 5 g/ha): 90% | Post-emergence action against ECHCG in % (Echinochloa crus-galli [1]; 20 g/ha): 100% | Post-emergence action against ECHCG in % (Echinochloa crus-galli [1]; 80 g/ha): 100% | Pre-emergence action against AVEFA (Avena fatua [2]; 80 g/ha): 80% | Pre-emergence action against AVEFA (Avena fatua [2]; 320 g/ha): 100% | Pre-emergence action against SETVI (Setaria viridis [3]; 80 g/ha): 100% | Pre-emergence action against SETVI (Setaria viridis [3]; 320 g/ha): 100% | Pre-emergence action against CYPES (Cyperus esculentus; 80 g/ha): 80% | Pre-emergence action against CYPES (Cyperus esculentus; 320 g/ha): 90% | Pre-emergence action against STEME (Stellaria media [21]; 20 g/ha): 90% | Pre-emergence action against STEME (Stellaria media [21]; 80 g/ha): 100% | Pre-emergence action against STEME (Stellaria media [21]; 320 g/ha): 100% | Pre-emergence action against ECHCG (Echinochloa crus-galli [5]; 80 g/ha): 80% | Pre-emergence action against ECHCG (Echinochloa crus-galli [5]; 320 g/ha): 100% | Pre-emergence action against PHBPU (Pharbitis purpurea [22]): 90% | Pre-emergence action against ABUTH (Abutilon theophrasti [6]; 80 g/ha): 100% | Pre-emergence action against ABUTH (Abutilon theophrasti [6]; Dosage column 320 g/ha (heading prints 3200 g/ha)): 100% | Post-emergence action against AVEFA in % (Avena fatua [7]; 5 g/ha): 80% | Post-emergence action against AVEFA in % (Avena fatua [7]; 20 g/ha): 100% | Post-emergence action against AVEFA in % (Avena fatua [7]; 80 g/ha): 100% | Pre-emergence action against ALOMY (Alopecurus myosuroides [8]; 80 g/ha): 80% | Pre-emergence action against ALOMY (Alopecurus myosuroides [8]; 320 g/ha): 90% | Post-emergence action against PHBPU in % (Pharbitis purpurea [23]; 5 g/ha): 80% | Post-emergence action against PHBPU in % (Pharbitis purpurea [23]; 20 g/ha): 90% | Post-emergence action against PHBPU in % (Pharbitis purpurea [23]; 80 g/ha): 90% | Post-emergence action against VIOTR in % (Viola tricolor [10]; 5 g/ha): 90% | Post-emergence action against VIOTR in % (Viola tricolor [10]; 20 g/ha): 100% | Post-emergence action against VIOTR in % (Viola tricolor [10]; 80 g/ha): 100% | Pre-emergence action against VERPE (Veronica persica [11]; 320 g/ha): 90% | Pre-emergence action against HORMU (Hordeum murinum [24]; 80 g/ha): 80% | Pre-emergence action against HORMU (Hordeum murinum [24]; 320 g/ha): 100% | Pre-emergence action against VIOTR (Viola tricolor [12]; 80 g/ha): 80% | Pre-emergence action against VIOTR (Viola tricolor [12]; 320 g/ha): 100% | Pre-emergence action against AMARE (Amaranthus retroflexus [13]; 20 g/ha): 100% | Pre-emergence action against AMARE (Amaranthus retroflexus [13]; 80 g/ha): 100% | Pre-emergence action against AMARE (Amaranthus retroflexus [13]; 320 g/ha): 100% | Post-emergence action against STEME in % (Stellaria media [25]; 5 g/ha): 90% | Post-emergence action against STEME in % (Stellaria media [25]; 20 g/ha): 100% | Post-emergence action against STEME in % (Stellaria media [25]; 80 g/ha): 100% | Post-emergence action against ABUTH (Abutilon theophrasti [14]; 5 g/ha): 100% | Post-emergence action against ABUTH (Abutilon theophrasti [14]; 20 g/ha): 100% | Post-emergence action against ABUTH (Abutilon theophrasti [14]; 80 g/ha): 100% | Post-emergence action against AMARE in % (Amaranthus retroflexus [15]; 5 g/ha): 100% | Post-emergence action against AMARE in % (Amaranthus retroflexus [15]; 20 g/ha): 100% | Post-emergence action against AMARE in % (Amaranthus retroflexus [15]; 80 g/ha): 100% | Post-emergence action against HORMU in % (Hordeum murinum [26]; 20 g/ha): 90% | Post-emergence action against HORMU in % (Hordeum murinum [26]; 80 g/ha): 100% | Post-emergence action against MATIN in % (Matricaria inodora [17]; 5 g/ha): 90% | Post-emergence action against MATIN in % (Matricaria inodora [17]; 20 g/ha): 100% | Post-emergence action against MATIN in % (Matricaria inodora [17]; 80 g/ha): 100% | Pre-emergence action against LOLRI (Lolium rigidum): 80% | Post-emergence action against SETVI in % (Setaria viridis [18]; 5 g/ha): 100% | Post-emergence action against SETVI in % (Setaria viridis [18]; 20 g/ha): 100% | Post-emergence action against SETVI in % (Setaria viridis [18]; 80 g/ha): 100% | Post-emergence action against ALOMY (Alopecurus myosuroides [19]; 20 g/ha): 80% | Post-emergence action against ALOMY (Alopecurus myosuroides [19]; 80 g/ha): 100% | Pre-emergence action against MATIN (Matricaria inodora [20]; 20 g/ha): 80% | Pre-emergence action against MATIN (Matricaria inodora [20]; 80 g/ha): 90% | Pre-emergence action against MATIN (Matricaria inodora [20]; 320 g/ha): 100%
